2 compounds from ChEMBL document CHEMBL1151425, “RNAIII-inhibiting peptide affects biofilm formation in a rat model of staphylococcal ureteral stent infection” (Antimicrob Agents Chemother, 2007) can be followed below.

Data set [1] has as its system Rattus norvegicus. The data set can be described thus: Toxicity in Staphylococcus aureus Smith diffuse infected Wistar rat assessed as mortality at 10 mg/kg, ip. The class given is organism-based. Details: dose 10 mg/kg, route intraperitoneal. The conditions noted are these: in vivo.
Data set [2] concerns Rattus norvegicus. Briefly: Toxicity in Staphylococcus aureus Smith diffuse infected Wistar rat containing 1 ug/ml drug-coated ureteral stent assessed as mortality in presence of 10 mg/kg, ip teicoplanin. The format is organism-based. The conditions noted are these: in vivo. Details: dose 10 mg/kg, route intraperitoneal.
Data set [3] deals with Rattus norvegicus. Briefly: Toxicity in Staphylococcus aureus Smith diffuse infected Wistar rat assessed as drug-related adverse effects at 10 mg/kg, ip. The conditions noted are these: in vivo. Details: dose 10 mg/kg, route intraperitoneal. The format is organism-based.
For data set [4], the system named is Rattus norvegicus. The data set can be described thus: Toxicity in Staphylococcus aureus Smith diffuse infected Wistar rat containing 1 ug/ml drug-coated ureteral stent assessed as drug-related adverse effects in presence of 10 mg/kg, ip teicoplanin. The format is organism-based. The conditions noted are these: in vivo. Details: dose 10 mg/kg, route intraperitoneal.

Data set [5] relates to Staphylococcus aureus. Briefly: Antimicrobial activity against Staphylococcus aureus Smith diffuse infected in Wistar rat ureteral stent infection model assessed as bacterial count on ureteral stent at 10 mg/kg, ip after 48 hrs. The class given is functional. The conditions noted are these: route intraperitoneal.
The species entered for data set [6] is Rattus norvegicus. The data set can be described thus: Toxicity in Staphylococcus aureus Smith diffuse infected Wistar rat containing 1 ug/ml drug-coated ureteral stent assessed as mortality. The class given is organism-based. The conditions noted are these: in vivo, other.
For data set [7], the species on record is Rattus norvegicus. Briefly: Toxicity in Staphylococcus aureus Smith diffuse infected Wistar rat containing 1 ug/ml drug-coated ureteral stent assessed as drug-related adverse effects. The format is organism-based. The conditions noted are these: in vivo, other.
Data set [8] deals with Staphylococcus aureus. Briefly: Antimicrobial activity against Staphylococcus aureus Smith diffuse infected in Wistar rat ureteral stent infection model assessed as bacterial count in urine at 10 mg/kg, ip after 48 hrs. The class given is functional. Particulars: route intraperitoneal.
Data set [9] relates to Staphylococcus aureus. The data set can be described thus: Potentiation of teicoplanin-induced antimicrobial activity against Staphylococcus aureus Smith diffuse infected in Wistar rat ureteral stent infection model containing drug-coated stent assessed as bacterial count on stent after 48 hrs. The class given is functional.
Data set [10] has as its system Staphylococcus aureus. Briefly: Antimicrobial activity against Staphylococcus aureus Smith diffuse infected in Wistar rat ureteral stent infection model. The class given is functional.
The subject of data set [11] is Staphylococcus aureus. The data set can be described thus: Antimicrobial activity against Staphylococcus aureus Smith diffuse infected in Wistar rat ureteral stent infection model containing 1 ug/ml drug-coated stent assessed as bacterial count in urine after 48 hrs. The format is functional.
For data set [12], the system named is Staphylococcus aureus. The data set can be described thus: Potentiation of teicoplanin-induced antimicrobial activity against Staphylococcus aureus Smith diffuse infected in Wistar rat ureteral stent infection model containing drug-coated stent assessed as bacterial count in urine after 48 hrs. The format is functional.
Data set [13] deals with Staphylococcus aureus. Briefly: Antimicrobial activity against Staphylococcus aureus Smith diffuse infected in Wistar rat ureteral stent infection model containing 1 ug/ml drug-coated stent assessed as bacterial count on ureteral stent after 48 hrs. The class given is functional.

A value given as a limit tells only on which side of the number the result lay.

For the compound `CC(=O)N[C@@H]1[C@H](Oc2c3cc4cc2Oc2ccc(cc2Cl)[C@@H](O[C@@H]2O[C@@H](CO)[C@@H](O)[C@H](O)[C@@H]2NC(C)=O)[C@@H]2NC(=O)[C@H](NC(=O)[C@@H]4NC(=O)[C@H]4NC(=O)[C@@H](Cc5ccc(c(Cl)c5)O3)NC(=O)[C@H](N)c3ccc(O)c(c3)Oc3cc(O)cc4c3)c3ccc(O)c(c3)-c3c(O[C@H]4O[C@H](CO)[C@@H](O)[C@@H](O)[C@@H]4O)cc(O)cc3[C@@H](C(=O)O)NC2=O)O[C@@H](CO)[C@@H](O)[C@@H]1O`, the Activity entry in the data set with Rattus norvegicus [1], in the data set with Rattus norvegicus [2], in the data set on Rattus norvegicus [3], in the data set on Rattus norvegicus [4], in the data set listed under Rattus norvegicus [6] and in the data set listed under Rattus norvegicus [7] was “Non-toxic” in each case. The CFU is 3.8 ×10³ /ml with Staphylococcus aureus [5] and 2.9 ×10⁴ /ml with Staphylococcus aureus [8].

Regarding H-YSPWTNF-NH2, the CFU in the data set on Staphylococcus aureus [9] is under 10 mL⁻¹; in the data set with Staphylococcus aureus [11], 4 ×10⁴ /ml; with Staphylococcus aureus [12], under 10 mL⁻¹; in the data set with Staphylococcus aureus [13] it was 67 ×10³ /ml. Besides, the MIC (usually the lowest concentration found to suppress growth) with Staphylococcus aureus [10] was 1 µg/mL. The Activity result in the data set with Rattus norvegicus [2], in the data set with Rattus norvegicus [3], with Rattus norvegicus [4], in the data set filed under Rattus norvegicus [6] and in the data set filed under Rattus norvegicus [7] was “Non-toxic” each time.
